From patent US20240368104A1, “Novel Dialkoxynaphtho[2,3-C]Furan-1(3H)-One Derivatives and Pharmaceutical Composition For Preventing or Treating Respiratory Disease or SARS-COV-2 Infection Disease, Comprising Same” (priority 2021, published 2024)
Structures can show the parent of a compound that is named as a salt. Where two headings read alike, the source gives them in different places.

Assays:
SARS-COV-2 = assay: microbe, parasite or virus in culture; format: cell-based; set-up: SI (Selectivity Index, CC50/IC50): unit not given here; settings: for SI (Selectivity Index, CC50/IC50): SARS-COV-2, values >50 assumed to be 50; for IC50: read-out: SARS-COV-2 inhibition (IC50)
in vitro = settings: African green monkey
[1] = Severe acute respiratory syndrome coronavirus 2, Vero cells, 24 hours infection
[2] = Severe acute respiratory syndrome coronavirus 2, Vero, 24 h

| SMILES | SI (Selectivity Index, CC50/IC50) (SARS-COV-2) | IC50 (SARS-COV-2; [1]) | CC50 (in vitro) | IC50 (SARS-COV-2; [2]) |
| --- | --- | --- | --- | --- |
| COc1cc2cc3c(c(-c4cccc5cccnc45)c2cc1OC)C(=O)OC3 [Example 125, 6,7-dimethoxy-9-(quinolin-8-yl)naphtho[2,3-c]furan-1(3H)-one] | 1.0 | > 50 µM | > 50 µM | – |
| CCN(CCc1cn(CC)c2ccccc12)c1ccc(-c2c3c(cc4cc(OC)c(OC)cc24)COC3=O)cn1 [Example 197, 9-(6-(ethyl(2-(1-ethyl-1H-indol-3-yl)ethyl)amino)pyridin-3-yl)-6,7-dimethoxynaphtho[2,3-c]furan-1(3H)-one] | 2.88 | 17.4 µM | > 50 µM | – |
| COc1cc2cc3c(c(-c4cnc(N(C)CCN5CCOCC5)nc4)c2cc1OC)C(=O)OC3 [Example 111, 6,7-dimethoxy-9-(2-(methyl(2-morpholinoethyl)amino)pyrimidin-5-yl)naphtho[2,3-c]furan-1(3H)-one hydrochloride] | 2.37 | – | > 50 µM | 21.1 µM |
| COc1cc2cc3c(c(-c4ccc5c(O)ccnc5c4C)c2cc1OC)C(=O)OC3 [Example 154, 9-(4-hydroxy-8-methylquinolin-7-yl)-6,7-dimethoxynaphtho[2,3-c]furan-1(3H)-one] | 1.0 | > 50 µM | > 50 µM | – |
| CCCCN(C)c1ccc(-c2c3c(cc4cc(OC)c(OC)cc24)COC3=O)cn1 [Example 180, 9-(6-(butyl(methyl)amino)pyridin-3-yl)-6,7-dimethoxynaphtho[2,3-c]furan-1(3H)-one] | 73.59 | 0.68 µM | > 50 µM | – |
| COc1cc2cc3c(c(-c4cnc(N5CCC[C@H]5C(=O)O)nc4)c2cc1OC)C(=O)OC3 [Example 61, (5-(6,7-dimethoxy-3-oxo-1,3-dihydronaphtho[2,3-c]furan-4-yl)pyrimidin-2-yl)-L-proline] | 1.00 | > 50 µM | > 50 µM | – |
| COc1cc2c(OC)c3c(c(-c4ccc(N(C)c5cccc(C(F)(F)F)c5)nc4)c2cc1OC)COC3=O.Cl [Example 263, 6,7,9-trimethoxy-4-(6-(methyl(3-(trifluoromethyl)phenyl)amino)pyridin-3-yl)naphtho[2,3-c]furan-1(3H)-one] | 1.00 | – | > 50 µM | > 50 µM |
| COc1cc2cc3c(c(-c4ccc(N(C)Cc5ccc(C)o5)nc4)c2cc1OC)C(=O)OC3 [Example 179, 6,7-dimethoxy-9-(6-(methyl((5-methylfuran-2-yl)methyl)amino)pyridin-3-yl)naphtho[2,3-c]furan-1(3H)-one] | 49.02 | 1.02 µM | > 50 µM | – |
| COc1cc2cc3c(c(-c4cnc(Cl)c(N(C)C)c4)c2cc1OC)C(=O)OC3 [Example 201, 9-(6-chloro-5-(dimethylamino)pyridin-3-yl)-6,7-dimethoxynaphtho[2,3-c]furan-1(3H)-one] | 39.52 | 1.27 µM | > 50 µM | – |
| COc1cc2cc3c(c(-c4cnc(N(CCO)CCO)nc4)c2cc1OC)C(=O)OC3.Cl [Example 85, 9-(2-(bis(2-hydroxyethyl)amino)pyrimidin-5-yl)-6,7-dimethoxynaphtho[2,3-c]furan-1(3H)-one hydrochloride] | 1.00 | – | > 50 µM | > 50 µM |
| COc1cc2cc3c(c(-c4ccc(N5CCC(O)CC5)nc4)c2cc1OC)C(=O)OC3 [Example 165, 9-(6-(4-hydroxypiperidin-1-yl)pyridin-3-yl)-6,7-dimethoxynaphtho[2,3-c]furan-1(3H)-one] | 11.69 | 2.91 µM | 34 µM | – |
| CCN(c1ncc(-c2c3c(cc4cc(OC)c(OC)cc24)COC3=O)cn1)C(C)C.Cl [Example 75, 9-(2-(ethyl(isopropyl)amino)pyrimidin-5-yl)-6,7-dimethoxynaphtho[2,3-c]furan-1(3H)-one hydrochloride] | 60.56 | – | > 50 µM | 0.83 µM |
| COc1cc2cc3c(c(-c4ccc(N(C)C(C)C)nc4)c2cc1OC)C(=O)OC3 [Example 188, 9-(6-(isopropyl(methyl)amino)pyridin-3-yl)-6,7-dimethoxynaphtho[2,3-c]furan-1(3H)-one] | 1418.97 | 0.04 µM | > 50 µM | – |
| COc1cc2cc3c(c(-c4ccc(N(C)c5nc(SC)n(C)n5)nc4)c2cc1OC)C(=O)OC3.Cl [Example 215, 6,7-dimethoxy-9-(6-(methyl(1-methyl-5-(methylthio)-1H-1,2,4-triazol-3-yl)amino)pyridin-3-yl)naphtho[2,3-c]furan-1(3H)-one] | 2.55 | – | > 50 µM | 19.6 µM |
| COc1cc2cc3c(c(-c4cnc5ccc(N6CCOCC6)nn45)c2cc1OC)C(=O)OC3 [Example 220, 6,7-dimethoxy-9-(6-morpholinoimidazo[1,2-b]pyridazin-3-yl)naphtho[2,3-c]furan-1(3H)-one] | 1.00 | > 50 µM | > 50 µM | – |
| COc1cc2cc3c(c(-c4ccc(N5CCCC5)cc4)c2cc1OC)C(=O)OC3 [Example 251, 6,7-dimethoxy-9-(4-(pyrrolidin-1-yl)phenyl)naphtho[2,3-c]furan-1(3H)-one] | 119.39 | 0.42 µM | > 50 µM | – |
| COc1cc2cc3c(c(-c4cnc(N(C)C5CCCCC5)nc4)c2cc1OC)C(=O)OC3.Cl [Example 79, 9-(2-(cyclohexyl(methyl)amino)pyrimidin-5-yl)-6,7-dimethoxynaphtho[2,3-c]furan-1(3H)-one hydrochloride] | 46.19 | – | > 50 µM | 1.08 µM |
| COc1cc2cc3c(c(-c4cnc(N(C)C)cn4)c2cc1OC)C(=O)OC3 [Example 31, 9-(5-(dimethylamino)pyrazin-2-yl)-6,7-dimethoxynaphtho[2,3-c]furan-1(3H)-one] | 11.86 | 4.22 µM | > 50 µM | – |
| COc1cc2cc3c(c(-c4cnc(N5CCN(C)CC5)nc4)c2cc1OC)C(=O)OC3 [Example 7] | 3.74 | 13.4 µM | > 50 µM | – |
| COc1cc2cc3c(c(-c4ccc(N5CCOCC5)nc4)c2cc1OC)C(=O)OC3 [Example 124, 6,7-dimethoxy-9-(6-morpholinopyridin-3-yl)naphtho[2,3-c]furan-1(3H)-one] | 176.18 | 0.28 µM | > 50 µM | – |
| COc1cc2cc3c(c(-c4cnc(N5CCOCC5)nc4)c2cc1OC)C(=O)OC3 [Example 51, 6,7-dimethoxy-9-(2-morpholinopyrimidin-5-yl)naphtho[2,3-c]furan-1(3H)-one] | 34.12 | 1.47 µM | > 50 µM | – |
| COc1cc2cc3c(c(-c4cnc(N5CCC6(CC5)OCCO6)nc4)c2cc1OC)C(=O)OC3 [Example 89, 9-(2-(1,4-dioxa-8-azaspiro[4.5]decan-8-yl)pyrimidin-5-yl)-6,7-dimethoxynaphtho[2,3-c]furan-1(3H)-one] | 1.00 | > 50 µM | > 50 µM | – |
| CNc1ccc(-c2c3c(cc4cc(OC)c(OC)cc24)COC3=O)cn1 [Example 229, 6,7-dimethoxy-9-(6-(methylamino)pyridin-3-yl)naphtho[2,3-c]furan-1(3H)-one] | 17.63 | 2.84 µM | > 50 µM | – |
| COc1cc2cc3c(c(-c4ccc(N5CCCC(c6cccc(C)c6)C5)nc4)c2cc1OC)C(=O)OC3 (stereo not drawn) [Example 202, 6,7-dimethoxy-9-(6-(3-(m-tolyl)piperidin-1-yl)pyridin-3-yl)naphtho[2,3-c]furan-1(3H)-one] | 38.01 | 1.01 µM | 38.4 µM | – |
| COc1cc2cc3c(c(-c4cnc(N5C[C@H](C)O[C@@H](C)C5)nc4)c2cc1OC)C(=O)OC3 [Example 62, 9-(2-((2S,6S)-2,6-dimethylmorpholino)pyrimidin-5-yl)-6,7-dimethoxynaphtho[2,3-c]furan-1(3H)] | 1.00 | > 50 µM | > 50 µM | – |
| COc1cc2cc3c(c(-c4ccc(N(C)c5nnc(C)o5)nc4)c2cc1OC)C(=O)OC3 [Example 231, 6,7-dimethoxy-9-(6-(methyl(5-methyl-1,3,4-oxadiazol-2-yl)amino)pyridin-3-yl)naphtho[2,3-c]furan-1(3H)-one] | 1.00 | > 50 µM | > 50 µM | – |
| COc1cc2cc3c(c(-c4ccc(C(F)(F)F)c5cccnc45)c2cc1OC)C(=O)OC3 [Example 119, 6,7-dimethoxy-9-(5-(trifluoromethyl)quinolin-8-yl)naphtho[2,3-c]furan-1(3H)-one] | 11.45 | 4.36 µM | > 50 µM | – |
| COc1cc2cc3c(c(-c4cnc(N(C)C5CCOCC5)nc4)c2cc1OC)C(=O)OC3 [Example 115, 6,7-dimethoxy-9-(2-(methyl(tetrahydro-2H-pyran-4-yl)amino)pyrimidin-5-yl)naphtho[2,3-c]furan-1(3H)-one] | 48.62 | 1.03 µM | > 50 µM | – |
| COc1cc2cc3c(c(-c4ccc(N(C)CC(OC)OC)nc4)c2cc1OC)C(=O)OC3 [Example 162, 9-(6-((2,2-dimethoxyethyl)(methyl)amino)pyridin-3-yl)-6,7-dimethoxynaphtho[2,3-c]furan-1(3H)-one] | 11.63 | 4.3 µM | > 50 µM | – |
| COCCN(C)C(=O)[C@@H]1CCCN1c1ncc(-c2c3c(cc4cc(OC)c(OC)cc24)COC3=O)cn1 [Example 33, (S)-1-(5-(6,7-dimethoxy-3-oxo-1,3-dihydronaphtho[2,3-c]furan-4-yl)pyrimidin-2-yl)-N-(2-methoxyethyl)-N-methylpyrrolidin-2-carboxamide] | 1.00 | > 50 µM | > 50 µM | – |
